# Species on record: Rattus norvegicus
# Assay: DrugMatrix - Regimen: Daily Repeat
# Assay type: toxicity, organism-based, Sprague-Dawley
# Parameters: regimen Daily Repeat, gender Male, age 6-8 weeks
# Conditions: in vivo, po, route oral GAVAGE, vehicle .5 % CMC; for ABSOLUTE BASOPHIL / ABSOLUTE EOSINOPHIL / ABSOLUTE LYMPHOCYTE / ABSOLUTE MONOCYTE / ABSOLUTE SEGMENTED NEUTROPHIL / BASOPHIL / EOSINOPHIL / ERYTHROCYTE COUNT / HEMATOCRIT / HEMOGLOBIN / LEUKOCYTE COUNT / LYMPHOCYTE / MEAN CORPUSCULAR HEMOGLOBIN / MEAN CORPUSCULAR HEMOGLOBIN CONCENTRATION / MEAN CORPUSCULAR VOLUME / MONOCYTE / NEUTROPHIL / NUCLEATED RED BLOOD CELLS / PLATELET COUNT: tissue Blood; for ALANINE AMINOTRANSFERASE / ALBUMIN / ALKALINE PHOSPHATASE / ASPARTATE AMINOTRANSFERASE / BLOOD UREA NITROGEN / CARBON DIOXIDE / CHLORIDE / CHOLESTEROL / CREATINE PHOSPHOKINASE / CREATININE / GLUCOSE / LACTATE DEHYDROGENASE / LIPASE / PHOSPHORUS / POTASSIUM / SODIUM / TOTAL BILIRUBIN / TOTAL PROTEIN / URIC ACID: tissue Plasma
# [1] = 10 mg/kg, 120 h, dose level Low, time 5 day
# [2] = 63 mg/kg, 72 h, dose level High, time 3 day
# [3] = 63 mg/kg, 120 h, dose level High, time 5 day
structure (smiles),measurement,setting,value
COc1c(C)c2c(c(O)c1C/C=C(\C)CCC(=O)OCCN1CCOCC1)C(=O)OC2 [MYCOPHENOLATE MOFETIL],ABSOLUTE BASOPHIL,[1],0 CELLS/uL
same,ABSOLUTE EOSINOPHIL,[1],90 CELLS/uL
same,ABSOLUTE LYMPHOCYTE,[1],13218.67 CELLS/uL
same,ABSOLUTE MONOCYTE,[1],116.67 CELLS/uL
same,ABSOLUTE SEGMENTED NEUTROPHIL,[1],1408 CELLS/uL
same,BASOPHIL,[1],0%
same,EOSINOPHIL,[1],0.67%
same,ERYTHROCYTE COUNT,[1],5.48 x10E6/uL
same,HEMATOCRIT,[1],34.27%
same,HEMOGLOBIN,[1],13.7 G/DL
same,LEUKOCYTE COUNT,[1],14.83 x10E3/uL
same,LYMPHOCYTE,[1],89.33%
same,MEAN CORPUSCULAR HEMOGLOBIN,[1],25 pg
same,MEAN CORPUSCULAR HEMOGLOBIN CONCENTRATION,[1],40.03 G/DL
same,MEAN CORPUSCULAR VOLUME,[1],62.53 fL
same,MONOCYTE,[1],0.67%
same,NEUTROPHIL,[1],9.33%
same,NUCLEATED RED BLOOD CELLS,[1],0 /100WBC
same,PLATELET COUNT,[1],1214 x10E3/uL
same,ALANINE AMINOTRANSFERASE,[1],55.67 u/L
same,ALBUMIN,[1],4.17 G/DL
same,ALKALINE PHOSPHATASE,[1],364.33 u/L
same,ASPARTATE AMINOTRANSFERASE,[1],99.67 u/L
same,BLOOD UREA NITROGEN,[1],13.67 mg/dL
same,CARBON DIOXIDE,[1],31.33 mmol/L
same,CHLORIDE,[1],102.67 MEQ/L
same,CHOLESTEROL,[1],61.67 mg/dL
same,CREATINE PHOSPHOKINASE,[1],341.67 u/L
same,CREATININE,[1],0.2 mg/dL
same,GLUCOSE,[1],141 mg/dL
same,LACTATE DEHYDROGENASE,[1],409.33 u/L
same,LIPASE,[1],9.67 u/L
same,PHOSPHORUS,[1],11.87 mg/dL
same,POTASSIUM,[1],6.19 MEQ/L
same,SODIUM,[1],144.83 MEQ/L
same,TOTAL BILIRUBIN,[1],0.1 mg/dL
same,TOTAL PROTEIN,[1],5.8 G/DL
same,URIC ACID,[1],1.37 mg/dL
same,ABSOLUTE BASOPHIL,[2],0 CELLS/uL
same,ABSOLUTE EOSINOPHIL,[2],0 CELLS/uL
same,ABSOLUTE LYMPHOCYTE,[2],8638 CELLS/uL
same,ABSOLUTE MONOCYTE,[2],62 CELLS/uL
same,ABSOLUTE SEGMENTED NEUTROPHIL,[2],300 CELLS/uL
same,BASOPHIL,[2],0%
same,EOSINOPHIL,[2],0%
same,ERYTHROCYTE COUNT,[2],4.81 x10E6/uL
same,HEMATOCRIT,[2],32.3%
same,HEMOGLOBIN,[2],12.6 G/DL
same,LEUKOCYTE COUNT,[2],9 x10E3/uL
same,LYMPHOCYTE,[2],96%
same,MEAN CORPUSCULAR HEMOGLOBIN,[2],26.2 pg
same,MEAN CORPUSCULAR HEMOGLOBIN CONCENTRATION,[2],39 G/DL
same,MEAN CORPUSCULAR VOLUME,[2],67.17 fL
same,MONOCYTE,[2],0.67%
same,NEUTROPHIL,[2],3.33%
same,NUCLEATED RED BLOOD CELLS,[2],0.33 /100WBC
same,PLATELET COUNT,[2],1141.33 x10E3/uL
same,ALANINE AMINOTRANSFERASE,[2],32.67 u/L
same,ALBUMIN,[2],4.13 G/DL
same,ALKALINE PHOSPHATASE,[2],373.33 u/L
same,ASPARTATE AMINOTRANSFERASE,[2],70.33 u/L
same,BLOOD UREA NITROGEN,[2],14.33 mg/dL
same,CARBON DIOXIDE,[2],28.67 mmol/L
same,CHLORIDE,[2],102.33 MEQ/L
same,CHOLESTEROL,[2],78.67 mg/dL
same,CREATINE PHOSPHOKINASE,[2],199.67 u/L
same,CREATININE,[2],0.16 mg/dL
same,GLUCOSE,[2],161.67 mg/dL
same,LACTATE DEHYDROGENASE,[2],310.33 u/L
same,LIPASE,[2],9.67 u/L
same,PHOSPHORUS,[2],11.63 mg/dL
same,POTASSIUM,[2],6.25 MEQ/L
same,SODIUM,[2],143.47 MEQ/L
same,TOTAL BILIRUBIN,[2],0.13 mg/dL
same,TOTAL PROTEIN,[2],5.6 G/DL
same,URIC ACID,[2],1.1 mg/dL
same,ABSOLUTE BASOPHIL,[3],0 CELLS/uL
same,ABSOLUTE EOSINOPHIL,[3],45.67 CELLS/uL
same,ABSOLUTE LYMPHOCYTE,[3],11569 CELLS/uL
same,ABSOLUTE MONOCYTE,[3],81.67 CELLS/uL
same,ABSOLUTE SEGMENTED NEUTROPHIL,[3],1037 CELLS/uL
same,BASOPHIL,[3],0%
same,EOSINOPHIL,[3],0.33%
same,ERYTHROCYTE COUNT,[3],4.9 x10E6/uL
same,HEMATOCRIT,[3],29.73%
same,HEMOGLOBIN,[3],12.17 G/DL
same,LEUKOCYTE COUNT,[3],12.73 x10E3/uL
same,LYMPHOCYTE,[3],91%
same,MEAN CORPUSCULAR HEMOGLOBIN,[3],24.83 pg
same,MEAN CORPUSCULAR HEMOGLOBIN CONCENTRATION,[3],40.93 G/DL
same,MEAN CORPUSCULAR VOLUME,[3],60.7 fL
same,MONOCYTE,[3],0.67%
same,NEUTROPHIL,[3],8%
same,NUCLEATED RED BLOOD CELLS,[3],0 /100WBC
same,PLATELET COUNT,[3],1576 x10E3/uL
same,ALANINE AMINOTRANSFERASE,[3],40.33 u/L
same,ALBUMIN,[3],4.33 G/DL
same,ALKALINE PHOSPHATASE,[3],290 u/L
same,ASPARTATE AMINOTRANSFERASE,[3],92.67 u/L
same,BLOOD UREA NITROGEN,[3],17.33 mg/dL
same,CARBON DIOXIDE,[3],27.33 mmol/L
same,CHLORIDE,[3],101 MEQ/L
same,CHOLESTEROL,[3],76.67 mg/dL
same,CREATINE PHOSPHOKINASE,[3],208.67 u/L
same,CREATININE,[3],0.15 mg/dL
same,GLUCOSE,[3],189.33 mg/dL
same,LACTATE DEHYDROGENASE,[3],215.33 u/L
same,LIPASE,[3],7 u/L
same,PHOSPHORUS,[3],12.23 mg/dL
same,POTASSIUM,[3],5.8 MEQ/L
same,SODIUM,[3],145 MEQ/L
same,TOTAL BILIRUBIN,[3],0.2 mg/dL
same,TOTAL PROTEIN,[3],6.07 G/DL
same,URIC ACID,[3],1.83 mg/dL

# — ChEMBL document CHEMBL3885881, “DrugMatrix”
